Laboratory results from patent US9089605B2, “Quinone derivatives, pharmaceutical compositions, and uses thereof” (Indiana University Research and Technology Corporation, priority 2007, dated 2015).
“Also recorded” adds a separate entry of the source.

Columns and labels:
Ape1 = Ape1 (Homo sapiens, UniProt P27695); experiment: Enzymatic redox assay (EMSA, AP-1 DNA binding); format: biochemical; conditions: EMSA, reduced Ape1, oxidized nuclear extracts (Hey-C2 cells), AP-1 DNA probe
cells = experiment: Growth inhibition assay (MTS); format: cell-based; conditions: MTS, compound treatment 24 or 72 h; read-out: Cell Killing (GI50)
Experimental: Growth inhibitory data was also collected for all the compounds tested in the redox assay. Following the procedure of Fishel et al, cells were aliquoted into 96 well plates at a concentration of 2-4,000 cells/well in triplicate and allowed to adhere overnight. Cells were then treated with compound for either 24 or 72 h. 3-(4-5-Dimethylthiazol-2-yl)-5-(3-carboxymethoxyphenyl)-2-(4-sulfophenyl)-2H-tetrazolium salt (MTS) was added to the cells following compound treatment and the cells were incubated for an additional 4 hours at 37° C. After incubation with MTS the plates were measured for absorbance at 490 nm. The values were standardized to wells containing media alone.

[1] = Qualitative solubility in solvents; format: physicochemical; conditions: listed solvents
avidin = avidin (Gallus gallus, UniProt P02701); conditions: cited from earlier work
Chain of avidin (P02701 25-152, species assumed): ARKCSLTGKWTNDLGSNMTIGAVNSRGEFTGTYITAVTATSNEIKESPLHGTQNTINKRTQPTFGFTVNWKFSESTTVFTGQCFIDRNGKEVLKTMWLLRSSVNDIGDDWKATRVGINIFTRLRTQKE

Chain of Ape1 (P27695 whole entry): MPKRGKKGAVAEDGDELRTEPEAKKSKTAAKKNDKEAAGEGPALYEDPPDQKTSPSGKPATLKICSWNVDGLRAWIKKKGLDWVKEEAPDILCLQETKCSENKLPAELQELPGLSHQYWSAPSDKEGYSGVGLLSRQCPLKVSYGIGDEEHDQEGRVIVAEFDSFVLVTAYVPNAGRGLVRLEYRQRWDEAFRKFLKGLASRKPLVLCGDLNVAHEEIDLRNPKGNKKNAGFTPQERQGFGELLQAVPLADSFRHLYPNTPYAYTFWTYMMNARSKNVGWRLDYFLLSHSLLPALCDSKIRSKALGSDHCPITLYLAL

Row | Compound | IC50 (Ape1) [µM] | melting point | GI50 (cells) [µM] | solubility (qualitative) [1] | avidin binding weaker than biotin (avidin) | solubility (qualitative) ([1]; listed as 93)
1 | COCC/C(=C\C1=C(Cl)C(=O)c2ccccc2C1=O)C(=O)O [Compound 62c, (E)-3-(3-chloro-1,4-naphthoquinon-2-yl)-2-methoxyethylpropenoic acid] | 3 | 160 °C (dec.) | 30 | – | – | –
2 | O=C(O)CCCC[C@H]1[C@H]2NC(=O)N[C@H]2CS1(=O)=O [Compound 89, 5-((1R,5S,6S)-3,7,7-trioxo-7-thia-2,4-diazabicyclo[3.3.0]oct-6-yl)pentanoic acid] | – | 255 °C | – | Insoluble in CH2Cl2, acetone, MeOH, water; also recorded: Soluble in DMSO and NaOH aq | approximately 3 fold | –
3 | CC(C)(C)OC(=O)NCCCCCCNC(=O)CCCC[C@H]1[C@H]2NC(=O)N[C@H]2CS1(=O)=O [Compound 110, N—(N′-tert-butoxycarbonyl-6-aminohexyl)-5-((1R,5S,6S)-3,7,7-trioxo-7-thia-2,4-diazabicyclo[3.3.0]oct-6-yl)pentanamide] | – | 213 to 215 °C | – | Insoluble: CH2Cl2, acetone, NaOH aq; also recorded: Mildly Soluble MeOH, EtOH; also recorded: Soluble: DMSO | – | –
4 | C[C@@H]1NC(=O)N[C@@H]1CCCCCC(=O)NCCCCCCNC(=O)OC(C)(C)C [Compound 111, N—(N′-tert-butoxycarbonyl-6-aminohexyl)-6-[(4R,5S)-5-methyl-imidazolidin-2-on-4-yl]hexanamide] | – | – | – | Insoluble: EtOAc, Et2O, H2O, NaOH aq; also recorded: Soluble: acetone, CH2Cl2 | – | –
5 | C[C@@H]1NC(=O)N[C@@H]1CCCCCC(=O)O [Desthiobiotin, 6-[(4R,5S)-5-methyl-imidazolidin-2-on-4-yl]hexanoic acid, reference compound] | – | – | – | – | – | Insoluble: CH2Cl2, H2O, acetone; also recorded: Soluble: NaOH aq

Now from value to compound, other results behind:

Row | IC50 (Ape1) [µM] | melting point | Compound | GI50 (cells) [µM] | solubility (qualitative) [1] | avidin binding weaker than biotin (avidin) | solubility (qualitative) ([1]; listed as 93)
6 | 10 | 104 to 106 °C | COCC/C(=C\C1=C(C)C(=O)C(OC)=C(OC)C1=O)C(=O)O [Compound 64, (E)-3-(4,5-dimethoxy-2-methyl-3,6-dioxocyclohexa-1,4-dienyl)-2-methoxyethylpropenoic acid] | 200 | – | – | –
7 | 5 | 156 to 157 °C | O=C(O)CCC1=C(Br)C(=O)c2ccccc2C1=O [Compound 69a, 3-(3-Bromo-1,4-naphthoquinon-2-yl)-propionic acid] | 15 | – | – | –
8 | 1.5 | 166 to 169 °C | C/C(=C/C1=C(Cl)C(=O)c2ccccc2C1=O)C(=O)O [Compound Z-43a, (2Z)-3-(3-chloro-1,4-naphthoquinon-2-yl)-2-methylpropenoic acid] | 30 | – | – | –
